Legend:
Assay in all cases: Cell proliferation assay (Alamar Blue)
Type in all cases: cell-based
SNU182 = settings: Homo sapiens, SNU-182, 144 h; SNU182 liver cancer cell line; 6 days
Method: (§1) 1. Instruments and Materials • Thermo 311 CO2 incubator; Haier biosafety cabinet; Molecular Devices microplate reader; Xiangyi brand L530 desktop low speed centrifuge; Olympus IX51 inverted fluorescence microscope, DMEM, RPMI 1640, MEM, DMEM/F12 1:1 medium, Fetal bovine serum, 0.25% trypsin solution, phosphate buffer (Thermo Fisher Shanghai Co., Ltd.); sigma dimethyl sulfoxide (DMSO), resazurin; 54 commercial tumor cell lines (including 26 liver cancer cell lines). Experimental drugs: compounds 1-12 and active drug Linifanib; chemotherapeutic drug Doxorubicin (HY-15142; Shanghai Qianyuan Biomedical Technology Co., Ltd.).
(§2) 2. Experimental Methods • 2.1 Cultivation of different cell lines • 54 cell lines were cultured in a culture medium containing fetal bovine serum and placed in a 5% CO 2 incubator at 37° C. for incubation. The cells were all grown in an adherent state, and the growth was observed under an inverted microscope, and subculture was performed when the cell confluence rate reached 80%-90%. The proportion and quantity of passage were determined by experimental needs. The ratio of subculture of this cell line was generally 1:2^˜1:3. • 2.2 inhibition effect on the proliferation of different tumor cell lines • Cell test: 54 cell lines in logarithmic growth phase were inoculated in 96-well culture plates at 500^˜1×10^4/well (the optimal seeding density of each cell line was determined in pre-experiment), After incubating at 37° C. for 4 h in a 5% CO2 humidification incubator, added 10 μL of compounds 1-12 or Linifanib to each well, and tested 9 drug concentration gradients for each compound (diluted from the highest concentration of the test by 3.16 times). The solubility of each compound was different at a starting concentration of 30 or 100 μM, respectively. The QC reference compound Doxorubicin was added simultaneously to each cell line test, and the final drug concentrations were 10, 3.16, 1, 0.31, 0.1, 0.03, 0.01, 0.003, and 0.001 μM, respectively. In addition, a positive control group (100% inhibition) and a negative control group (0% inhibition) were set at the same time. The drug group was repeated for 2 wells per concentration, and the positive control group and the negative control group were repeated for 6 wells. After the culture was continued for 6 days in the incubator, AlamarBlue test operation was followed; • AlamarBlue test procedure: Incubated with 10 μL of AlamarBlue reagent per well for 1-4 h, shook for 1-2 min, MD microplate reader EX: 560 nm, EM: 590 nm wavelength to measure fluorescence, recorded the results, calculated the cell inhibition rate of the compound of the invention. Cell inhibition rate (%)=(A0% inhibition−A administration)/(A0% inhibition−A100% inhibition)×100%, and then using the method of nonlinear regression using Graph Pad Prism 5.0 or MATILAB software (usually using four parameters) to graph and obtain a drug dose response curve to obtain an IC50 value of the compound of the present invention acting on a cancer cell line.

JHH1 = settings: 144 h; JHH1 liver cancer cell line; 6 days
Method: as §1, §2

LC-2-ad = settings: Homo sapiens, 144 h; LC-2-ad tumor cell line; 6 days
Method: as §1, §2

MFM-223 = settings: Homo sapiens, 144 h; MFM-223 tumor cell line; 6 days
Method: as §1, §2

K562 = settings: Homo sapiens, 144 h; K562 tumor cell line; 6 days
Method: as §1, §2

HT1080 = settings: Homo sapiens, HT-1080, 144 h; HT1080 tumor cell line; 6 days
Method: as §1, §2

AN3CA = settings: Homo sapiens, AN3-CA, 144 h; AN3CA (endometrial cells); 6 days
Method: as §1, §2

MDA-MB-231 = settings: Homo sapiens, 144 h; MDA-MB-231 tumor cell line; 6 days
Method: as §1, §2

T.T = settings: Homo sapiens, TT, 144 h; T.T tumor cell line; 6 days
Method: as §1, §2

MDA-MB-435S = settings: Homo sapiens, 144 h; MDA-MB-435S tumor cell line; 6 days
Method: as §1, §2

SNU739 = settings: SNU-739, 144 h; SNU739 liver cancer cell line; 6 days
Method: as §1, §2

Alexander cells = settings: 144 h, liver cancer cell line, 6 days
Method: as §1, §2

DU145 = settings: Homo sapiens, DU-145, 144 h; DU145 tumor cell line; 6 days
Method: as §1, §2

NCl-H526 = settings: 144 h; NCl-H526 tumor cell line; 6 days
Method: as §1, §2

HuTu80 = settings: Homo sapiens, 144 h; HuTu80 tumor cell line; 6 days
Method: as §1, §2

NCl-H1648 = settings: 144 h; NCl-H1648 tumor cell line; 6 days
Method: as §1, §2

SNU475 = settings: Homo sapiens, SNU-475, 144 h; SNU475 liver cancer cell line; 6 days
Method: as §1, §2

LNCAP-clone-FGC = settings: Homo sapiens, 144 h; LNCAP-clone-FGC tumor cell line; 6 days
Method: as §1, §2

SNU387 = settings: Homo sapiens, SNU-387, 144 h; SNU387 liver cancer cell line; 6 days
Method: as §1, §2

NCl-H661 = settings: 144 h; NCl-H661 tumor cell line; 6 days
Method: as §1, §2

KM12 = settings: Homo sapiens, 144 h; KM12 tumor cell line; 6 days
Method: as §1, §2

JHH7 = settings: 144 h; JHH7 liver cancer cell line; 6 days
Method: as §1, §2

TE-15 = settings: Homo sapiens, 144 h; TE-15 tumor cell line; 6 days
Method: as §1, §2

Row | Structure (SMILES) | IC50 (SNU182) [µM] | IC50 (K562) [µM] | IC50 (HT1080) [µM] | IC50 (MDA-MB-231) [µM] | IC50 (MDA-MB-435S) [µM] | IC50 (SNU739) [µM] | IC50 (DU145) [µM] | IC50 (NCl-H526) [µM] | IC50 (NCl-H1648) [µM] | IC50 (SNU475) [µM] | IC50 (LNCAP-clone-FGC) [µM] | IC50 (SNU387) [µM] | IC50 (NCl-H661) [µM] | IC50 (JHH1) [µM] | IC50 (LC-2-ad) [µM] | IC50 (MFM-223) [µM] | IC50 (AN3CA) [µM] | IC50 (T.T) [µM] | IC50 (Alexander cells) [µM] | IC50 (HuTu80) [µM] | other results
1 | Cc1ccc(F)c(NC(=O)Nc2ccc(-c3cccc4c3c(N)nn4C(=O)C[C@H](N)C(=O)N[C@@H](CCC(=O)N[C@@H](CCC(=O)N[C@@H](CCC(=O)N[C@@H](CCC(=O)O)C(=O)O)C(=O)O)C(=O)O)C(=O)O)cc2)c1 [Compound 2] | 32.1 | 7.13 | 19.3 | 5.02 | 30 | 6.33 | 4.89 | 8.94 | 8.91 | 6.37 | 6.34 | 19.4 | 11.3 | 11.3 | 13.5 | 10.3 | 0.45 | 8.29 | 5.21 | 5.62 | IC50 (KM12): 2.94 µM; IC50 (JHH7): 2.84 µM; IC50 (TE-15): 8.45 µM
2 | Cc1ccc(F)c(NC(=O)Nc2ccc(-c3cccc4c3c(N)nn4C(=O)C[C@H](N)C(=O)N[C@@H](CCC(=O)N[C@@H](CCC(=O)N[C@@H](CCC(=O)N[C@@H](CCC(=O)N[C@@H](CCC(=O)N[C@@H](CCC(=O)N[C@@H](CCC(=O)N[C@@H](CCC(=O)N[C@@H](CCC(=O)O)C(=O)O)C(=O)O)C(=O)O)C(=O)O)C(=O)O)C(=O)O)C(=O)O)C(=O)O)C(=O)O)cc2)c1 [Compound 3] | 54.2 | 16.9 | 25.8 | 8.51 | 46.4 | 8.05 | 7.38 | 11.3 | 13.6 | 9.62 | 15.4 | 40.1 | 21.1 | 14.9 | 22.4 | 21.9 | 0.64 | 19.8 | 12.7 | 7.33 | IC50 (KM12): 4.63 µM; IC50 (JHH7): 5.69 µM; IC50 (TE-15): 12.7 µM
3 | Cc1ccc(F)c(NC(=O)Nc2ccc(-c3cccc4c3c(N)nn4C(=O)CCCCCNC(=O)C[C@H](N)C(=O)N[C@@H](CCC(=O)N[C@@H](CCC(=O)N[C@@H](CCC(=O)N[C@@H](CCC(=O)O)C(=O)O)C(=O)O)C(=O)O)C(=O)O)cc2)c1 [Compound 5] | > 100 | 56.1 | > 100 | > 100 | > 100 | > 100 | 55.4 | > 100 | > 100 | > 100 | > 100 | > 100 | > 100 | > 100 | 51.3 | 48.3 | 45.6 | > 100 | > 100 | 48.4 | IC50 (KM12): 45.7 µM; IC50 (JHH7): 57.8 µM; IC50 (TE-15): > 100 µM
4 | Cc1ccc(F)c(NC(=O)Nc2ccc(-c3cccc4c3c(N)nn4C(=O)CCCCCNC(=O)C[C@H](N)C(=O)N[C@@H](CCC(=O)N[C@@H](CCC(=O)N[C@@H](CCC(=O)N[C@@H](CCC(=O)N[C@@H](CCC(=O)N[C@@H](CCC(=O)N[C@@H](CCC(=O)N[C@@H](CCC(=O)N[C@@H](CCC(=O)O)C(=O)O)C(=O)O)C(=O)O)C(=O)O)C(=O)O)C(=O)O)C(=O)O)C(=O)O)C(=O)O)cc2)c1 [Compound 6] | > 100 | 74.3 | > 100 | > 100 | > 100 | > 100 | 63.3 | > 100 | > 100 | > 100 | > 100 | > 100 | > 100 | > 100 | 67.8 | 72.2 | 55.4 | > 100 | > 100 | 61 | IC50 (KM12): 70 µM; IC50 (JHH7): 83.2 µM; IC50 (TE-15): > 100 µM

Further lines, with some results ahead:

Row | IC50 (SNU182) [µM] | IC50 (K562) [µM] | IC50 (HT1080) [µM] | IC50 (MDA-MB-231) [µM] | IC50 (MDA-MB-435S) [µM] | IC50 (SNU739) [µM] | IC50 (DU145) [µM] | IC50 (NCl-H526) [µM] | IC50 (NCl-H1648) [µM] | IC50 (SNU475) [µM] | IC50 (LNCAP-clone-FGC) [µM] | IC50 (SNU387) [µM] | IC50 (NCl-H661) [µM] | Structure (SMILES) | IC50 (JHH1) [µM] | IC50 (LC-2-ad) [µM] | IC50 (MFM-223) [µM] | IC50 (AN3CA) [µM] | IC50 (T.T) [µM] | IC50 (Alexander cells) [µM] | IC50 (HuTu80) [µM] | other results
5 | 19.9 | 3.99 | 13.2 | 3.95 | 18.9 | 4.56 | 2.76 | 6.6 | 6.89 | 4.85 | 5.47 | 12.8 | 7.09 | Cc1ccc(F)c(NC(=O)Nc2ccc(-c3cccc4c3c(N)nn4C(=O)C[C@H](N)C(=O)N[C@@H](CCC(=O)O)C(=O)O)cc2)c1 [Compound 1] | 8.15 | 8.89 | 8.89 | 0.31 | 5.22 | 5.5 | 3.17 | IC50 (KM12): 1.89 µM; IC50 (JHH7): 1.81 µM; IC50 (TE-15): 7.59 µM
6 | > 100 | 44.2 | > 100 | 96.5 | 98.8 | 73.8 | 38 | > 100 | > 100 | 81.3 | 75.3 | > 100 | 99.5 | Cc1ccc(F)c(NC(=O)Nc2ccc(-c3cccc4c3c(N)nn4C(=O)CCCCCNC(=O)C[C@H](N)C(=O)N[C@@H](CCC(=O)O)C(=O)O)cc2)c1 [Compound 4] | > 100 | 36.9 | 38 | 28.7 | > 100 | 97.2 | 38.2 | IC50 (KM12): 33.9 µM; IC50 (JHH7): 45.9 µM; IC50 (TE-15): > 100 µM
7 | > 100 | 23.9 | > 100 | 32.1 | > 100 | 37.4 | 17.2 | > 100 | > 100 | 40.7 | 26.7 | > 100 | 86.7 | Cc1ccc(F)c(NC(=O)Nc2ccc(-c3cccc4c3c(N)nn4C(=O)CCCCCCCCCCCNC(=O)C[C@H](N)C(=O)N[C@@H](CCC(=O)O)C(=O)O)cc2)c1 [Compound 7] | > 100 | 54.3 | 24.1 | 2.94 | > 100 | 98 | 21.1 | IC50 (KM12): 7.72 µM; IC50 (JHH7): 9.98 µM; IC50 (TE-15): 63.6 µM
